Laboratory results reported in patent US20210022305A1, “A HUMULUS PLANT VARIANT AND EXTRACTS THEREOF” (BOMI LLC, priority 2018, published 2021).

Tested on: VIC cells
Assay: VIC calcification reduction (Alizarin Red S nodule number and area)
Assay type: cell-based, porcine
Experimental: VIC Isolation and Culture. VICs were isolated from porcine aortic valve leaflets (Hormel, Austin, Minn.) by collagenase digestion and subsequently cultured in growth medium (15% FBS, 2 mM L-glutamine, 100 U/ml penicillin, and 100 µg/ml streptomycin in medium 199) at 37° C., 5% CO2 for two to four passages. VICs used in all experiments were seeded at a density of 50,000 cells/cm^2 onto 24-well or 96-well plates. During the experiments, the VICs were cultured in low-serum medium (1% FBS, 100 U/ml penicillin, 100 µg/ml streptomycin, 2 mM L-glutamine, in medium 199), and the medium was changed each day until the fifth day.
Culture Substrate Coatings. Tissue culture polystyrene (TCPS) plates (24-well or 96-well) were coated with type I collagen (Coll) (Inamed Biomaterials, Fremont, Calif.; […]), fibronectin (FN, 5 g/cm^2), fibrin (FB, […]), or left untreated (TCPS). For the FB coating, plates were first incubated overnight at 4° C. in fibrinogen (1 mg/mL), followed by three washes with 0.05% Tween 20 in phosphate-buffered saline (PBS) and 1 hour incubation with thrombin (0.6 mg/ml) at 37° C. (Gu et al., “Role of the MAPK/ERK Pathway in Valvular Interstitial Cell Calcification,” American Journal of Physiology—Heart and Circulatory Physiology 296(6):H1748-H1757 (2009), which is hereby incorporated by reference in its entirety). All coatings were prepared in 50 mM bicarbonate coating buffer, pH 8.5, and rinsed three times with PBS before cell seeding. The amounts of adsorbed proteins were measured on separate plates using the bicinchoninic acid protein assay (Pierce, Rockford, Ill.) to verify adsorption of protein coatings.
Quantification of Nodule Number and Size. After 5 days of culture in the presence or absence of U-0126 or PD-98059, VIC cultures were stained with Alizarin Red S (ARS) to facilitate quantification of calcified nodules, as ARS stains mineralized deposits red. Cultures were fixed with 10% neutral buffered formalin, stored at 4° C. overnight, and stained with a 2% solution of ARS in PBS. Positively stained nodules were manually counted under a microscope (Olympus IX51 with Hamamatsu 285 digital camera and Simple PCI digital imaging software; Compix, Imaging Systems, Cranberry Township, Pa.). Nodule size was measured using ImageJ software (National Institutes of Health), and photomicrographs were captured under 40 and 100 magnifications.
Multiplate wells containing calcifying VICs from 27 different tissue samples were treated with CBD of 8 different bioactivities, and 5 different mg concentrations, or left untreated. Average calcification was computed using the number of nodules per well, and the average area per nodule. Average total nodule area for untreated wells was 3.27 mm^2 (SD=0.32, min=0.5, max=4.0) per well. All reported percent reductions in calcification were computed by dividing average nodule area of treated wells from 3.27 mm^2. CBD samples were clustered according to their bioactivity levels around the values, 0.20, 0.30, 0.50, 0.60, 0.70, 0.80, 0.90, and 0.95. Mg dosages of 5, 10, 25, 40, and 100 were examined.
Culture Substrate Coatings. Tissue culture polystyrene (TCPS) plates (24-well or 96-well) were coated with type I collagen (Coll) (Inamed Biomaterials, Fremont, Calif.; […]), fibronectin (FN, 5 g/cm^2), fibrin (FB, 1.5 g/cm^2), or left untreated (TCPS). For the FB coating, plates were first incubated overnight at 4° C. in fibrinogen (1 mg/mL), followed by three washes with 0.05% Tween 20 in phosphate-buffered saline (PBS) and 1 hour incubation with thrombin (0.6 mg/mL) at 37° C. All coatings were prepared in 50 mM bicarbonate coating buffer, pH 8.5, and rinsed three times with PBS before cell seeding. The amounts of adsorbed proteins were measured on separate plates using the bicinchoninic acid protein assay (Pierce, Rockford, Ill.) to verify adsorption of protein coatings. […]

[1] = Example 4, 5 mg, CBD = 0.95 bioactivity
[2] = Example 4, 10 mg, CBD = 0.95 bioactivity
[3] = Example 4, 25 mg, CBD = 0.95 bioactivity
[4] = Example 4, 40 mg, CBD = 0.95 bioactivity
[5] = Example 4, 100 mg, CBD = 0.95 bioactivity

## C=C(C)C1CCC(C)=CC1c1c(O)cc(CCCCC)cc1O (stereo not drawn) [CBD, 2-(6-isopropenyl-3-methyl-2-cyclohexen-l-yl)-5-pentyl-1,3-benzenediol]
25 mg, bioactivity .90
  Calcification reduction, Max: 35.6%
  Calcification reduction, Min: 23.5%
25 mg, bioactivity .95
  Calcification reduction, M: 32.69%
  Calcification reduction, Max: 42.6%
  Calcification reduction, Min: 26.3%
40 mg, bioactivity .20
  Calcification reduction, M: 5.19%
  Calcification reduction, Max: 6.9%
  Calcification reduction, Min: 3.6%
40 mg, bioactivity .30
  Calcification reduction, M: 7.13%
  Calcification reduction, Max: 8.1%
  Calcification reduction, Min: 5.1%
40 mg, bioactivity .50
  Calcification reduction, M: 14.2%
  Calcification reduction, Max: 17.1%
  Calcification reduction, Min: 12%
40 mg, bioactivity .60
  Calcification reduction, M: 19.23%
  Calcification reduction, Max: 21.9%
40 mg, bioactivity .70
  Calcification reduction, M: 24.7%
  Calcification reduction, Max: 33%
  Calcification reduction, Min: 18.9%
40 mg, bioactivity .80
  Calcification reduction, M: 28.54%
  Calcification reduction, Max: 34.6%
  Calcification reduction, Min: 22.4%
40 mg, bioactivity .90
  Calcification reduction, M: 40.09%
  Calcification reduction, Max: 44.6%
  Calcification reduction, Min: 33.7%
40 mg, bioactivity .95
  Calcification reduction, M: 42.98%
  Calcification reduction, Max: 54.5%
  Calcification reduction, Min: 35.8%
100 mg, bioactivity .20
  Calcification reduction, M: 6.1%
  Calcification reduction, Max: 7.5%
  Calcification reduction, Min: 5.2%
100 mg, bioactivity .30
  Calcification reduction, M: 7.2%
  Calcification reduction, Max: 8.4%
  Calcification reduction, Min: 6%
100 mg, bioactivity .50
  Calcification reduction, M: 16.1%
  Calcification reduction, Max: 18.1%
  Calcification reduction, Min: 14.1%
100 mg, bioactivity .60
  Calcification reduction, M: 21.54%
  Calcification reduction, Max: 23.7%
  Calcification reduction, Min: 18.3%
100 mg, bioactivity .70
  Calcification reduction, M: 30.71%
  Calcification reduction, Max: 35.6%
  Calcification reduction, Min: 25.8%
100 mg, bioactivity .80
  Calcification reduction, M: 37.74%
  Calcification reduction, Max: 44.4%
  Calcification reduction, Min: 31.7%
100 mg, bioactivity .90
  Calcification reduction, M: 48.52%
  Calcification reduction, Max: 54.7%
  Calcification reduction, Min: 37.6%
100 mg, bioactivity .95
  Calcification reduction, M: 55%
  Calcification reduction, Max: 66.1%
  Calcification reduction, Min: 41.9%
[1]
  Calcification reduction, M: 19.42%
  Calcification reduction, Max: 22.1%
  Calcification reduction, Min: 15.4%
[2]
  Calcification reduction, M: 25.56%
  Calcification reduction, Max: 32.5%
  Calcification reduction, Min: 18.5%
[3]
  Calcification reduction, M: 32.69%
  Calcification reduction, Max: 42.6%
  Calcification reduction, Min: 26.3%
[4]
  Calcification reduction, M: 42.98%
  Calcification reduction, Max: 54.5%
  Calcification reduction, Min: 35.8%
[5]
  Calcification reduction, M: 55%
  Calcification reduction, Max: 66.1%
  Calcification reduction, Min: 41.9%
